Results on 78 molecules are retold here after the METLIN SMRT retention time set (Domingo-Almenara et al. 2019).

This data set can be described thus: gradient 5% acetonitrile 3 min, to 50% in 2 min, to 85% in 15 min, held 3 min, 100 µL/min. As to conditions: column: Zorbax Extend-C18 2.1 x 50 mm; eluents: water / acetonitrile, 0.1% formic acid. Put shortly:
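A Zorbax Extend-C18 column (2.1 × 50 mm, 1.8 μm) run at 100 μL/min with water and acetonitrile, both containing 0.1% formic acid, separated mixtures of ~100 pure standards. The HPLC was coupled to a quadrupole time-of-flight mass spectrometer operated in positive and negative ionization mode, with dead and dwell volumes of 40 μL and 900 μL. Each retention time was taken from a computationally picked adduct peak that was then manually inspected.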
`Cc1oc(-c2[nH]ncc2C(=O)N(C)C)cc1S(=O)(=O)Nc1ccc(F)cc1` returned an RP-LC retention time of 670 s. `COc1nc(-c2ccc3c(c2)OCO3)n(-c2ccc(NC(=O)CSc3ccccc3)cc2)n1` gave an RP-LC retention time of 894 s. `COc1cc(OC)c(NC(=O)CN2C(=O)CN(C)C(=O)c3ccccc32)cc1Cl` displayed an RP-LC retention time of 719 s. Molecule `CCc1ccc(-c2csc(NC3OC(=O)c4ccccc43)n2)cc1` (stereo not drawn) showed an RP-LC retention time of 833 s. Molecule `O=C1NC2(CCN(C(=O)c3ccccc3F)CC2)N=C1c1ccc(Cl)cc1` registered an RP-LC retention time of 871 s. `Cc1cc(C)cc(C(=O)NCc2ccc3c(c2)nnn3C)c1`: the RP-LC retention time stood at 755 s. As for `Cc1nc(-c2csc(S(=O)(=O)N3CCCC(C(=O)NCc4ccccc4C)C3)c2)no1` (stereo not drawn), the figure is 983 s. As for `CCN1CCn2cc(S(=O)(=O)Nc3ccc(C)cc3C)cc2C1=O`, the figure is 746 s. The result for `N#Cc1c(N)nc(SCC(=O)c2ccc(Br)cc2)c(C#N)c1-c1ccccc1` reads 997 s; that for `O=c1c2sccc2n(Cc2nc(-c3ccc(Cl)cc3)no2)c(=O)n1-c1cccc(F)c1`, 1070 s. `CCOCC(=O)N1CCc2nc(N3CCN(C)CC3)sc2C1` returned an RP-LC retention time of 557 s. In turn, `COc1ccccc1Nc1c(-c2ccc(Br)cc2)nc2cnccn12` had an RP-LC retention time of 1080 s. In the case of `Cc1noc(C)c1-c1ccc(S(=O)(=O)Nc2ccc(C#N)cc2)cc1`, the RP-LC retention time worked out at 874 s. As for `CCc1nc(-c2ccc(-c3noc(CNS(=O)(=O)c4ccc(Cl)cc4)n3)cc2)cs1`, the figure is 1110 s; as for `CC(Oc1ccc(C(C)(C)C)cc1)C(=O)Nc1ccnn1Cc1ccco1` (stereo not drawn), 1020 s. Regarding `CCCNC(=O)C1CCCN(c2ccc(SCC(=O)Nc3ccc(C)c(C)c3)nn2)C1` (stereo not drawn), the RP-LC retention time was 678 s. Turning to `Cc1cc(C(=O)N2c3ccccc3CC2c2nc(C3CC3)no2)nn1C` (stereo not drawn), the RP-LC retention time is 929 s. In turn, `Cc1ccc(N2C(=O)C3N=NN(Cc4nc(-c5ccc(C)c(C)c5)no4)C3C2=O)cc1` (stereo not drawn) showed an RP-LC retention time of 1110 s. As to `Cc1cc(=O)oc2c3c(cc(OCC(=O)N[C@H](CC(C)C)C(=O)O)c12)OC(C)(C)CC3`, the RP-LC retention time stood at 892 s.

Molecule `O=C(NCc1ccccc1F)c1ccc2c(c1)CN(C1CCSCC1)CCO2` had an RP-LC retention time of 584 s. With `CCCNC(=O)NC1CCN(c2nc3ccccc3n(CC)c2=O)CC1`, the RP-LC retention time is 770 s. `CCCCC(=O)NC1(C(F)(F)F)C(=O)N(CCc2ccccc2)C(C)=C1C(C)=O` (stereo not drawn) showed an RP-LC retention time of 980 s.

In the case of `CCc1ccccc1N1C(=O)CN(S(=O)(=O)CC)CC1(C)C(=O)NCc1ccc(F)cc1` (stereo not drawn), the RP-LC retention time was 892 s. Take `O=C(CN1CCN(C(=O)COc2ccc(Cl)cc2Cl)CC1)c1cccs1`: the RP-LC retention time is 630 s. Consider `O=C(NC1CC1)C1CCCN(S(=O)(=O)c2cc(-c3noc(C4CCCC4)n3)cs2)C1` (stereo not drawn), for which the RP-LC retention time came to 972 s.

As to `O=C(NC1CCCCCC1)c1cn(-c2ccc(-c3nc(C4CC4)no3)cn2)cn1`, the RP-LC retention time was determined as 1010 s. `Cc1cc(C)n2c(Nc3ccccc3)c(-c3cccc(Cl)c3)nc2n1` displayed an RP-LC retention time of 1130 s. In turn, `O=S(=O)(c1ccc(-c2cc(C(F)(F)F)on2)o1)N1CCCCC1` showed an RP-LC retention time of 1110 s. The molecule `O=C(Nc1cccc(Br)c1)C1CCN(C(=O)c2cc(-c3ccncc3)n[nH]2)CC1` returned an RP-LC retention time of 640 s.

For `Nc1cc(C2CCN(C(=O)c3nccc4ccccc34)CC2)no1`, the RP-LC retention time stood at 647 s. In the case of `Cc1ccccc1CNC(=O)c1cc2n(n1)CC(C)(C(=O)NCc1ccccc1)N(C)C2=O` (stereo not drawn), the RP-LC retention time is 769 s.

In turn, `COCCN1CCC2(CC1)CN(Cc1ccc(C(C)C)cc1)Cc1ccccc1O2` registered an RP-LC retention time of 667 s. `CCOCCOC(=O)C1=C(C)NC2=C(C(=O)C(C(=O)OC)C(C)C2)C1c1ccccc1F` (stereo not drawn) gave an RP-LC retention time of 862 s. The molecule `O=C(NCC1CCOCC1)Nc1ccccc1Br` had an RP-LC retention time of 740 s. The result for `CN(c1ccccc1)S(=O)(=O)c1ccc(C(=O)Nc2nccs2)cc1` reads 807 s. `CCNc1nc(NC(C)C)nc(-n2cnc(SC)n2)n1`: the RP-LC retention time turned out to be 897 s. As for `O=C([C@@H]1C[C@H](F)CN1S(=O)(=O)c1ccc(Cl)s1)N1CCc2ccccc2C1`, the figure is 955 s. The result for `COCCC1CCN(C(=O)c2n[nH]c3ccccc23)CC1` reads 709 s; that for `COC(=O)c1c(NCCC(C)C)c2cccc(Cl)c2[nH]c1=O`, 847 s.

`Cc1ccc(CNC(=O)N2CCC(OC3CCN(S(C)(=O)=O)CC3)CC2)cc1` had an RP-LC retention time of 760 s.

`CC(C)N(Cc1ccccc1)C(=O)C1CCCN(c2ncnc3c2nc2n3CCCCC2)C1` (stereo not drawn): the RP-LC retention time was 905 s. Molecule `O=C(O)c1ccc(N2CCCC(CN3CCCC3)C2)c(NS(=O)(=O)c2cccc(F)c2)c1` (stereo not drawn) registered an RP-LC retention time of 648 s. For `Cc1ccc(C2Cn3nnc(-c4nc(-c5ccccc5Cl)no4)c3CO2)c(C)c1` (stereo not drawn), the RP-LC retention time turned out to be 1290 s. The result for `O=C(NCC1CCCO1)c1ccc(-c2ccc(N3CCCCC3)nc2)cc1` (stereo not drawn) reads 613 s; that for `CCOc1ccc(Nc2c(C(=O)N3CCCCC3CC)cnc3nc(C)ccc23)cc1` (stereo not drawn), 683 s; that for `COc1cccc(N2CCN(C(=O)c3cc4c(-c5cccs5)nn(-c5ccccc5)c4n3C)CC2)c1`, 1180 s. `CCCCOc1cc(CC2CNC(=O)N2)ccc1OC` (stereo not drawn) displayed an RP-LC retention time of 798 s. Take `C[C@@H]1CN(CCCn2c3ccccc3c3ccccc32)C[C@H](C)N1`: the RP-LC retention time is 712 s. `CC(=O)c1ccc(N2CCN(c3ccc(NC(=O)C4CCC4)c(C(=O)O)c3)CC2)cc1` registered an RP-LC retention time of 853 s.

`CCOC(=O)c1ccc(N2C=C(C#N)S(=O)(=O)c3ccccc32)cc1` showed an RP-LC retention time of 917 s. The molecule `c1cc2c(cc1-c1nnc(C3CCC3)o1)OCO2` gave an RP-LC retention time of 865 s. As for `CCCn1c(=O)sc2cc(S(=O)(=O)N3CCC(C(=O)NC)CC3)ccc21`, the figure is 730 s; as for `COc1ccc(OC)c(CNC(=O)C2CCCN(c3nnc4ccc(Cl)cn34)C2)c1` (stereo not drawn), 737 s. `Oc1cccc(-c2nc3cnccn3c2Nc2ccc(Br)cc2)c1` yielded an RP-LC retention time of 1020 s. The result for `CCCN(CC1CCOC1)C(=O)Nc1c(C)cccc1C` (stereo not drawn) reads 791 s. The result for `CC1=C(c2ccccc2)S(=O)(=O)N=C1N1CCCN(C(=O)NCc2ccccc2)CC1` reads 843 s. With `O=C(Nc1cc(F)cc(F)c1)C1CCN(c2cc(N3CCCC3)ncn2)CC1`, the RP-LC retention time was determined as 724 s. As for `COc1ccc(N2CCN(C(=O)CN3C(=O)CN(C)C(=O)c4ccccc43)CC2)cc1`, the figure is 624 s; as for `Cc1nc2nc(-c3ccc(C(C)(C)C)cc3)nn2c(C)c1CC(=O)N1CCc2ccccc2C1`, 1120 s.

`CC(=O)c1cccc(C(=O)N2CCC3(CC2)NC(=O)N(Cc2cccc(Cl)c2)C3=O)c1` came in with an RP-LC retention time of 771 s.

On to `O=c1c(NCc2ccc(Cl)cc2)nccn1-c1ccc2c(c1)OCO2`, for which the RP-LC retention time is 923 s. `O=C(c1ccc2c(c1)OCO2)N(CCc1cscn1)Cc1cccnc1` came in with an RP-LC retention time of 602 s.

For the molecule `CCc1n[nH]c(CC2CCN(C(=O)C3(c4ccccc4)CC3)CC2)n1`, the RP-LC retention time was 608 s.

For the molecule `CN1c2cc(F)ccc2C(=O)NC12CCN(C(=O)c1ccc(F)c(Cl)c1)CC2`, the RP-LC retention time was determined as 823 s.

Consider `COc1ccc(-c2cn3c(CC(=O)N4CCN(c5ccccc5OC)CC4)csc3n2)cc1OC`, for which the RP-LC retention time amounted to 698 s. Molecule `COCc1nc2cccnc2n1C1CCN(C(=O)Nc2cc(Cl)c(OC)cc2OC)CC1` had an RP-LC retention time of 723 s. The result for `O=C(Cc1ccccc1)NCCSc1c[nH]c2ccccc12` reads 790 s; that for `Cc1cc2[nH]c(C(=O)NCc3ccc(N4CCOCC4)cc3)c(CN3CCCC3)c2s1`, 660 s; that for `Cc1cc(-c2ccc(N3C(=O)CC4(CCCC4)C3=O)c(C)c2)ccc1N1C(=O)CC2(CCCC2)C1=O`, 1170 s. `CCOc1ccccc1NC(=O)NCCc1cn(C)c2ncccc12` came in with an RP-LC retention time of 733 s. `CC(C)c1ccc2occ(CC(=O)N(Cc3ccc(N(C)C)cc3)C3CCS(=O)(=O)C3)c2c1` (stereo not drawn): the RP-LC retention time came to 936 s. The result for `Cc1ccc(CNC(=O)Cn2nc3n(c2=O)CCCCC3)cc1` reads 675 s. With `Cc1cccc(NS(=O)(=O)c2cc3c(s2)CCN(C(=O)C2CC2)C3)c1C`, the RP-LC retention time was found to be 858 s.

Consider `O=C(NCc1cc(F)cc(F)c1)C1CCCN(c2ccc(-c3ccccc3)nn2)C1` (stereo not drawn), for which the RP-LC retention time was found to be 735 s.

The molecule `O=C(CCc1c(-c2ccc(Br)cc2)nc2ccccn12)NCc1cccc(F)c1` returned an RP-LC retention time of 677 s.

In the case of `CCC1Oc2ccc(S(=O)(=O)N3CCC(C(=O)Nc4ccc(F)cc4C)CC3)cc2NC1=O` (stereo not drawn), the RP-LC retention time is 922 s. As for `CCOc1ccccc1NC(=O)N1CCC2(CC1)NC(=O)c1ccc(Cl)cc1N2CC`, the figure is 955 s; as for `CCOc1ccc(-c2ccc(=O)n(Cc3nc(-c4ccc(OC(C)C)cc4)no3)n2)cc1`, 826 s.
